Measurements published in US12729194B2, “Compounds for the treatment of human immunodeficiency virus” (priority 2019, dated 2026).

Columns and labels:
[1] = test system: HIV-1JR-FL Env on virions; experiment: Single-molecule FRET of virion Env; conditions: saturating concentration (100 μM)
Protocol: Single-molecule fluorescence resonance energy transfer (smFRET): Viruses with HIV-1JR-FL Env that is double-tagged at V1-Q3 and V4-A1 were prepared for smFRET imaging, as described in Munro, Science 346, 759-763 (2014). The high (40:1) ratio of wild-type Env to tagged Env ensures that, on average, only one tagged protomer is available for imaging on a single virus particle. The Q3 and A1 double-tagged viruses allowed the incorporation of Cy3B and Cy5 fluorescent labels, respectively. Thus, the relative movements of the V1 and V4 regions in one gp120 subunit of an individual Env trimer could be monitored in real time. The smFRET images were acquired on an in-house-built total internal reflection fluorescent microscope, as described in Munro. HIV-1JR-FL viruses incubated with saturating concentrations (100 μM) of AEG-II-168 or control HIV-1JR-FL viruses without compound were used for smFRET imaging. Data were analyzed with the customized MATLAB (Mathworks) program SPARTAN as described in Juette, Nat Methods 13, 341-344 (2016). FRET trajectories meeting the criteria of quality (sufficient signal:noise ratio, single dye photobleaching, anti-correlated features between donor and acceptor intensity and fluorescence lifetime) were compiled into FRET histograms. Hidden Markov modeling was used to fit the FRET histograms with the sum of three Gaussian distributions. […]

[2] = test system: HIV-1AD8 Env on VLPs; experiment: Shedding of gp120 from VLP Env; conditions: 4° C. and 37° C., 4 days, no detergent
Protocol: Shedding of gp120 from VLP Env: The effect of compounds on the spontaneous shedding of gp120 from VLP Env was evaluated. VLPs with the wild-type HIV-1AD8 Env were prepared from the supernatants of A549-Gag/Env cells, as described above. The VLPs were suspended in PBS, to which was added either DMSO or a compound described herein. An aliquot of the VLP suspension in PBS/DMSO was processed as described below to serve as a Day 0 control. The VLP suspensions were incubated for 4 days at 4° C., room temperature or 37° C. (with gentle rocking). Then the VLPs were pelleted (100,000×g for 30 min at 4° C.). The pellets and supernatants were boiled in LDS sample buffer and analyzed by Western blotting with either 1:2000 goat anti-gp120 polyclonal antibody (ThermoFisher) and HRP-conjugated rabbit anti-goat IgG antibody, or with 1:5000 rabbit anti-Gag p55/p24/p17 antibody (Abcam) and HRP-conjugated goat anti-rabbit IgG antibody (Abcam).

[3] = test system: HIV-1 with BG505 Env; experiment: microbe, parasite or virus in culture; format: cell-based; conditions: Human immunodeficiency virus 1; Cf2Th-CD4/CCR5 target cells, 48 hours, luciferase; means and standard errors of four experiments; read-out: 50% inhibitory concentration (IC50), BG505
[4] = test system: HIV-1 Env complexes; experiment: Association of gp120 with detergent-solubilized His6-tagged Env complexes (Ni-NTA precipitation, Western blot)
Protocol: Association of gp120 with Env complexes: The non-covalent association of gp120 with HIV-1 Env complexes was studied using carboxy-terminally His6-tagged Envs from three different sources: 1) VLPs produced from A549-Gag/Env cells; 2) A549 cells expressing HIV-1AD8 and HIV-1CH848 Envs; and 3) HOS cells transiently expressing wild-type HIV-1JR-FL Env and wild-type and mutant HIV-1AD8 Envs. VLP and cell lysates from A549 cells were prepared in 1.5% Triton X-100. Cell lysates from HOS cells were prepared in 1.5% Cymal-5 (Anatrace). The VLP and cell lysates were clarified as described above. DMSO, a compound described herein, sCD4 or the CD4-mimetic compound, BNM-III-170 (Melillo, ACS Med Chem Letters 7, 33-334, 2016), was added to the lysate. Aliquots of the lysates were saved for Western blotting to detect the gp160, gp120 and gp41 glycoproteins in the input sample. The bulk of the lysates was incubated with nickel-nitriloacetic acid (Ni-NTA) beads (Qiagen) for 1.5 hours at 4° C. The beads were pelleted (1000 rpm for 1 minute at room temperature), washed 3 times with wash buffer with 1% Triton X-100, boiled in LDS sample buffer, and analyzed by Western blotting as described above.

[5] = test system: monomeric soluble HIV-1AD8 gp120; experiment: Antibody recognition of monomeric gp120; format: binding; conditions: 10 μM; CD4-Ig, CD4BS bNAbs, 17b
Protocol: Antibody recognition of monomeric gp120: To produce gp120 monomers, a stop codon was introduced into the HIV-1AD8 env gene sequence encoding the gp120-gp4l junction. […] The supernatants were clarified by low-speed centrifugation and 0.45-μ filtration, and then used for precipitation by antibodies in the absence or presence of 10 μM BMS-806. Precipitates were Western blotted with a goat anti-gp120 polyclonal antibody (ThermoFisher) and 1:3000 HRP-conjugated rabbit anti-goat IgG antibody (ThermoFisher).

[6] = test system: cell-surface HIV-1AD8 Env (A549-Env cells); experiment: Immunoprecipitation of cell-surface Env by antibody panel; format: cell-based; conditions: 10 μM
Protocol: Immunoprecipitation of cell-surface Env: Doxycycline-induced A549-Env cells were washed twice with washing buffer (1×PBS+5% FBS), with or without 10 μM BMS-806 or compounds described herein. The cells were then incubated with 5 μg/ml antibody for one hour at 4° C. in the continued presence or absence of the compounds described herein. After washing four times in washing buffer, the cells were lysed in NP-40 lysis buffer (0.5% NP-40, 0.5 M NaCl, 10 mM Tris, pH 7.5) for five minutes at 4° C. with gentle agitation. Unless specifically indicated otherwise, compounds described herein were not added to the NP-40 lysis buffer. The lysates were cleared by centrifugation at 13,200×g for 20 minutes at 4° C., and the clarified supernatants were incubated with Protein A-Sepharose beads (50 μl of 25 mg/ml in PBS per sample) for one hour at room temperature. The beads were pelleted (1000 rpm×1 min) and washed three times with final wash buffer (200 mM Tris-HCl, pH 8.0, 100 mM (NH4)2SO4, 1 M NaCl and 0.1% NP-40). The beads were suspended in LDS sample buffer, boiled and analyzed by Western blotting using 1:2000 goat anti-gp120 polyclonal antibody (ThermoFisher) and 1:2000 HRP-conjugated rabbit anti-goat IgG (ThermoFisher). The transmembrane Env was analyzed by Western blot with the 4E10 anti-gp41 antibody and HRP-conjugated goat anti-human IgG (Santa Cruz).

[7] = HIV-1AD8 Env variant in HOS cell lysates

| Compound | Virion Env conformational state by smFRET [1] | Spontaneous shedding of gp120 into the VLP supernatant [2] | IC50 [3] [nM] | sCD4-induced shedding of gp120 from Env complexes ([4]; 10 μM added to cell lysates) | BMS-806-induced gp120-Env association, I559F mutant [4, 7] | BMS-806-induced gp120-Env association, L193A mutant [4, 7] | Ligand binding to monomeric gp120 [5] | Recognition of cell-surface Env by poorly neutralizing antibodies ([6]; 17b, 19b, 902090, F105) | Binding of bNAbs to mature cell-surface gp120 ([6]; PG9, PG16, PGT145, PGT151, 35022) |
| --- | --- | --- | --- | --- | --- | --- | --- | --- | --- |
| COc1ccc(-c2ccc(CNC(=O)c3c(F)c(F)c(N=[N+]=[N-])c(F)c3F)o2)c2[nH]cc(C(=O)C(=O)N3CCN(C(=O)c4ccccc4)CC3)c12 [AEG-II-168] | maintained a State-1-dominant conformation | decreased the shedding of gp120 | 0.22 |  |  |  |  |  |  |
| COc1ccnc2[nH]cc(C(=O)C(=O)N3CCN(C(=O)c4ccccc4)C[C@H]3C)c12 [BMS-806, reference compound] |  | decreased the shedding of gp120 | 0.8 | could be blocked | abrogated responsiveness to BMS-806 | poor responsiveness | mildly decreased gp120 binding | decreased the recognition of the uncleaved Env | increased the binding of some bNAbs |
